Tests used:
Assay type in all cases: cell-based
[1] = system: primary human T-cells (IL-2 induced proliferation, JAK-1/JAK-3, Stat-5); test: Primary Human T-Cell Proliferation Assay Stimulated with IL-2 (CellTiter-Glo); details: Table III Example 4
How it was run: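 Read-out is intracellular ATP luminescence (CellTiter-Glo) after 72 h at 37 °C of IL-2-driven growth. Cells, pre-stimulated via TCR and CD28 then washed free of IL-2, were resuspended in Yssel's medium, given 80 U/mL IL-2 in the cell suspension plus duplicate compound; unstimulated wells lacked IL-2.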

[2] = system: IFNγ induced ICAM-1 (CD54) up-regulation in U937 human monocytic cells (JAK/Stat pathway); test: U937 IFNγ ICAM1 FACS Assay; details: Table III Example 6; 10 ng/mL IFNγ, 18-24 hours
Source text: A549 lung epithelial cells and U937 cells up-regulate ICAM-1 (CD54) surface expression in response to a variety of different stimuli. Therefore, using ICAM-1 expression as readout, test compound effects on different signaling pathways can be assessed in the same cell type. Stimulation with IL-1β through the IL-1β receptor activates the TRAF6/NFκB pathway resulting in up-regulation of ICAM-1. IFNγ induces ICAM-1 up-regulation through activation of the JAK1/JAK2 pathway. The up-regulation of ICAM-1 can be quantified by flow cytometry across a compound dose curve and EC50 values are calculated. Exemplary assays of this type are described in greater detail in Examples 5 and 6. U937 human monocytic cells up-regulate ICAM-1 (CD54) surface expression in response to a variety of different stimuli. Therefore, using ICAM-1 expression as readout, compound effects on different signaling pathways can be assessed in the same cell type. IFNγ up-regulates ICAM-1 through activation of the JAK/Stat pathway. In this example, the up-regulation of ICAM-1 by IFNγ was assessed. […] The cells were then plated at a concentration of 100,000 cells per 160 μL in 96 well flat bottom plates. The test compounds were then diluted as follows: 10 mM test compound was diluted 1:5 in DMSO (3 μL 10 mM test compound in 12 μL DMSO), followed by a 1:3 serial dilution of test compound in DMSO (6 μL test compound serially diluted into 12 μL DMSO to give 3-fold dilutions). […] For control wells, 4 μL of DMSO was diluted into 76 μL 10% RPMI. […] The cells and compounds were then pre-incubated for 30 minutes at 37° C. with 5% CO2. […] The cells were kept under conditions for stimulation for 18-24 hours at 37° C. with 5% CO2. […] Cells were spun down at 1000 rpm for 5 minutes at 4° C., following which the supernatant was removed. […] The cells were then incubated on ice in the dark for 30 minutes. […] After suspension, the cells were centrifuged at 1000 rpm for 5 min at 4° C. […] Detection was performed using a BD LSR I System Flow Cytometer, purchased from BD Biosciences of San Jose, Calif. The live cells were gated for live scatter and the geometric mean of ICAM-APC was measured (Becton-Dickinson CellQuest software version 3.3, Franklin Lakes, N.J.). Both % live cells and ICAM-1 expression was analyzed. The assays for the test compounds were carried out in parallel with a control compound of known activity.

[3] = system: IL-4 stimulated CD23 upregulation in human Ramos B cells (JAK-1/JAK-3, Stat-6); test: Assay for Ramos B-Cell Line Stimulated with IL-4 (CD23 upregulation, FACS); details: Table III Example 3
How it was run: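 Flow cytometry of CD23 staining after 20-24 h IL-4 stimulation (50 units/mL final) of human Ramos B cells in RPMI with 5% serum. Cells, 5×10^4 per point, received compound or DMSO vehicle for 1 h at 37° C prior to stimulation.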

SMILES | IC50 [1] | IC50 [2] | IC50 [3]
Cc1cnc(Nc2cccc(S(=O)(=O)NC3CCCC3)c2)nc1Nc1ccc(CNS(=O)(=O)C2CC2)cc1 [Compound I-170, N2-(3-cyclopentylaminosulfonyl)phenyl-N4-(4-cyclopropylsulfonylaminomethyl)phenyl-5-methyl-2,4-pyrimidinediamine] | 172 nM | 238 nM | 136 nM
CCCN(Cc1ccc(Nc2nc(Nc3ccc(C)c(S(N)(=O)=O)c3)ncc2F)cc1)S(=O)(=O)CC [Compound I-19, N2-(3-aminosulfonyl-4-methyl)phenyl-N4-[4-(N-ethylsulfonyl-N-propylamino)methyl]phenyl-5-fluoro-2,4-pyrimidinediamine] | 494 nM | 1640 nM | 148 nM
CC(C)S(=O)(=O)NCc1ccc(Nc2nc(Nc3cccc(S(N)(=O)=O)c3)ncc2F)cc1 [Compound I-66, N2-(3-aminosulfonyl)phenyl-5-fluoro-N4-(4-isopropylsulfonylaminomethyl)phenyl-2,4-pyrimidinediamine] | 65 nM | 472 nM | 69.4 nM
Cc1cnc(Nc2cccc(S(N)(=O)=O)c2)nc1Nc1ccc(CNS(=O)(=O)C2CC2)cc1 [Compound I-46, N2-(3-aminosulfonyl)phenyl-N4-(4-cyclopropylsulfonylaminomethyl)phenyl-5-methyl-2,4-pyrimidinediamine] | 24.9 nM | 188 nM | 26.8 nM
Cc1cnc(Nc2ccc(S(=O)(=O)NC(C)C)cc2)nc1Nc1ccc(CNS(=O)(=O)C2CC2)cc1 [Compound I-172, N4-(4-cyclopropylsulfonylaminomethyl)phenyl-N2-(4-isopropylaminosulfonyl)phenyl-5-methyl-2,4-pyrimidinediamine] | 81 nM | 123 nM | 52.1 nM
CCNS(=O)(=O)c1cc(Nc2ncc(C)c(Nc3cccc(CNS(=O)(=O)C4CC4)c3)n2)ccc1C [Compound I-213, N4-(3-cyclopropylsulfonylaminomethyl)phenyl-N2-(3-ethylaminosulfonyl-4-methyl)phenyl-5-methyl-2,4-pyrimidinediamine] | 91.8 nM | 125 nM | 88.2 nM
NS(=O)(=O)c1cccc(Nc2ncc(F)c(Nc3ccc(CNS(=O)(=O)c4cccnc4)cc3)n2)c1 [Compound I-95, N2-(3-aminosulfonyl)phenyl-5-fluoro-N4-[4-(pyrid-3-yl)sulfonylaminomethyl]phenyl-2,4-pyrimidinediamine] | 286 nM | 2690 nM | 160 nM
Cc1ccc(Nc2ncc(C)c(Nc3ccc(CNS(=O)(=O)CC(F)(F)F)cc3)n2)cc1S(N)(=O)=O [Compound I-98, N2-(3-aminosulfonyl-4-methyl)phenyl-5-methyl-N4-(4-trifluoroethylsulfonylaminomethyl)phenyl-2,4-pyrimidinediamine] | 52.1 nM | 152 nM | 25.3 nM
CNS(=O)(=O)c1cc(Nc2ncc(C)c(Nc3cccc(CNS(=O)(=O)C4CC4)c3)n2)ccc1C [Compound I-211, N4-(3-cyclopropylsulfonylaminomethyl)phenyl-5-methyl-N2-(4-methyl-3-methylaminosulfonyl)phenyl-2,4-pyrimidinediamine] | 48.2 nM | 177 nM | 103 nM
Cc1cnc(Nc2ccc(S(N)(=O)=O)cc2)nc1Nc1ccc(CCNS(=O)(=O)C2CC2)cc1 [Compound I-53, N2-(4-aminosulfonyl)phenyl-N4-[4-(2-cyclopropylsulfonylamino)ethyl]phenyl-5-methyl-2,4-pyrimidinediamine] | 175 nM | 604 nM | 131 nM
CCS(=O)(=O)NCCc1ccc(Nc2nc(Nc3cccc(S(N)(=O)=O)c3)ncc2F)cc1 [Compound I-15, N2-(3-aminosulfonyl)phenyl-N4-[4-(2-ethylsulfonylamino)ethyl]phenyl-5-fluoro-2,4-pyrimidinediamine] | 184 nM | 3110 nM | 65.8 nM
Cc1ccc(Nc2ncc(C)c(Nc3cccc(CN(C)S(=O)(=O)C4CC4)c3)n2)cc1S(N)(=O)=O [Compound I-122, N2-(3-aminosulfonyl-4-methyl)phenyl-N4-[3-(N-cyclopropylsulfonyl-N-methyl)aminomethyl]phenyl-5-methyl-2,4-pyrimidinediamine] | 88.3 nM | 155 nM | 81.6 nM
CCCN(Cc1ccc(Nc2nc(Nc3cccc(S(N)(=O)=O)c3)ncc2F)cc1)S(=O)(=O)CC [Compound I-18, N2-(3-aminosulfonyl)phenyl-N4-[4-(N-ethylsulfonyl-N-propylamino)methyl]phenyl-5-fluoro-2,4-pyrimidinediamine] | 272 nM | 1290 nM | 107 nM
Cc1cnc(Nc2ccc(S(N)(=O)=O)cc2)nc1Nc1ccc(CNS(=O)(=O)C2CC2)c(Cl)c1 [Compound I-129, N2-(4-aminosulfonyl)phenyl-N4-(3-chloro-4-cyclopropylsulfonylaminomethyl)phenyl-5-methyl-2,4-pyrimidinediamine] | 432 nM | 2510 nM | 161 nM
Cc1cnc(Nc2ccc(S(N)(=O)=O)cc2)nc1Nc1ccc(CN(C)S(=O)(=O)C2CC2)cc1 [Compound I-127, N2-(4-aminosulfonyl)phenyl-N4-[4-(N-cyclopropylsulfonyl-N-methyl)aminomethyl]phenyl-5-methyl-2,4-pyrimidinediamine] | 233 nM | 616 nM | 126 nM
Cc1ccc(Nc2ncc(F)c(Nc3ccc(CNS(=O)(=O)c4cccnc4)cc3)n2)cc1S(N)(=O)=O [Compound I-90, N2-(3-aminosulfonyl-4-methyl)phenyl-5-fluoro-N4-[4-(pyrid-3-yl)sulfonylaminomethyl]phenyl-2,4-pyrimidinediamine] | 349 nM | 2430 nM | 152 nM
CCC(=O)N(Cc1ccc(Nc2nc(Nc3ccc(S(N)(=O)=O)cc3)ncc2C)cc1)S(=O)(=O)C1CC1 [Compound I-167, N2-(4-aminosulfonyl)phenyl-N4-[4-(N-cyclopropylsulfonyl-N-propionyl)aminomethyl]phenyl-5-methyl-2,4-pyrimidinediamine] | 116 nM | 587 nM | 132 nM
Cc1ccc(Nc2ncc(F)c(Nc3ccc(CNS(=O)(=O)C4CC4)cc3)n2)cc1S(N)(=O)=O [Compound I-25, N2-(3-aminosulfonyl-4-methyl)phenyl-N4-(4-cyclopropylsulfonylaminomethyl)phenyl-5-fluoro-2,4-pyrimidinediamine] | 63.9 nM | 363 nM | 69 nM
Cc1cnc(Nc2cccc(S(=O)(=O)NCc3ccncc3)c2)nc1Nc1ccc(CNS(=O)(=O)C2CC2)cc1 [Compound I-169, N4-(4-cyclopropylsulfonylaminomethyl)phenyl-5-methyl-N2-[3-(4-pyridylmethyl)aminosulfonyl]phenyl-2,4-pyrimidinediamine] | 206 nM | 478 nM | 140 nM
Cc1ccc(Nc2ncc(C)c(Nc3cccc(CNS(=O)(=O)C4CC4)c3)n2)cc1S(=O)(=O)NC(C)C [Compound I-209, N4-(3-cyclopropylsulfonylaminomethyl)phenyl-N2-(3-isopropylaminosulfonyl-4-methyl)phenyl-5-methyl-2,4-pyrimidinediamine] | 131 nM | 529 nM | 113 nM
Cc1ccc(Nc2ncc(C)c(Nc3ccc4c(c3)CN(S(=O)(=O)C3CC3)C4)n2)cc1S(N)(=O)=O [II-7, N2-(3-Aminosulfonyl-4-methylphenyl)-N4-[(2-cyclopropylsulfonyl)-isoindolin-5-yl]-5-methyl-2,4-pyrimidinediamine] | 155 nM | 652 nM | 130 nM

From patent publication US9481654B2, “Compositions and methods for inhibition of the JAK pathway” (Rigel Pharmaceuticals, Inc., priority 2006, dated 2016)
